Tested on: mouse model of renal fibrosis (UUO)
Test: Mouse model of renal fibrosis (unilateral ureteral obstruction, UUO)
Assay type: in vivo
Conditions: for urea nitrogen level: model 17.56±0.48; for serum creatinine level: model 32.48±0.87; for urine protein level: model 888.5±264.8; for extent of renal fibrosis, pathological staining (H&E, Masson, Sirius red): FIG. 2, control compound 25 mg/kg, losartan 50 mg/kg; for body weight compared with the UUO model group / kidney weight compared with the UUO model group: gavage once daily 14 days, not statistically different (P>0.05)
Protocol: The therapeutic effect of the compounds of the present invention (as exemplified by Compound 1-1 obtained in Example 1) on renal fibrosis was determined using a mouse model of renal fibrosis. The method was as follows:
Grouping of animals: male C57BL/6J mice aged 8 weeks were given adaptive feeding for 3 days and grouped into a sham operation group, a sham operation-treatment group, a Unilateral ureteral obstruction (UUO) model group, a low-dose (10 mg/kg) treatment group, a medium-dose (25 mg/kg) treatment group, a high-dose (50 mg/kg) treatment group, a medium-dose (25 mg/kg) treatment group of indole analogue 3-[(1-methyl-1H-indole-2-carbonyl)amino]propionic acid disclosed in CN2019107285315, and a positive control group of losartan (50 mg/kg), with 10 animals in each group. Mice in the model and the treatment groups were anesthetized by intraperitoneal injection of 0.5% sodium pentobarbital at a dose of 0.1 mL/10 g. The mice were fixed on the operating table and cut open in layers from the right side of the mid-abdomen to locate the left kidney, and the ends of the ureter were ligated, while the ureter was cut off between the two ligations; the sham operation group was operated as described above and the ligations were not performed. Post-operative organs were repositioned, sutured, and sterilized with iodophor after suturing was completed. Immediately after operation, the drug was administered by gavage once daily for 14 days. Urine sample collection: animals were placed in separate metabolic cages by group on days 0, 5, 10 and 14 after modelling, without food or water, and urine samples were collected from each group of mice.
The protein levels in urine were determined using Coomassie brilliant blue (CBB) method by using urine protein quantitative test kit (Nanjing Jiancheng Bioengineering Institute). CBB working solution was prepared according to the kit instructions. 0.05 mL of each urine sample was mixed with 3 mL of CBB working solution, the mixture was left to stand for 5 min, and the absorbance value of each sample was determined at 595 nm. The protein levels in each group of urine samples were calculated according to the protein standardization formula: urine protein levels (mg/L)=(measured OD−blank OD)/(standard OD−blank OD)×563 mg/L.
Collection of serum sample: orbital blood from each mouse was collected in an EP tube, placed at 37° C. for 20 minutes, and centrifuged to obtain the upper layer of serum.
Collection of plasma sample: orbital blood from each mouse was collected in an anticoagulation tube, mixed well and stored at 4° C. for later use.
Determination of creatinine levels in urine and serum by the picric acid colorimetric method: creatinine levels in urine and serum were determined by using the creatinine test kit (Nanjing Jiancheng Bioengineering Institute). According to the kit instructions, 1.5 mL of urine sample or serum sample and 0.5 mL of picric acid solution, 0.5 mL of 0.5 mol/L sodium hydroxide solution were mixed, heated in water bath at 37° C. for 10 minutes. The absorbance value of each sample was determined using a UV spectrophotometer at a wavelength of 510 nm. Creatinine levels in samples of each group were calculated according to the formula: creatinine level (μmol/L) in serum or urine=(measured OD value−blank OD value)/(standard OD value−blank OD value)×50 μmol/L×(dilution ratio 201).
Determination of urea nitrogen level in plasma by diacetyl monoxime method: urea nitrogen level was determined was determined by using blood urea nitrogen (BUN) test kit (Nanjing Jiancheng Bioengineering Institute). According to the kit instructions, 0.05 mL of anticoagulated plasma samples were mixed with 1 mL of oxime solution and 1 mL of acid working solution, and the mixtures were placed in a boiling water bath for 15 min. A UV-visible spectrophotometer was used to determine the absorbance values of each tube at a wavelength of 520 nm. […]

Row | Compound | creatinine level reduced compared with the model group (25 mg/kg gavage 14 days) | urea nitrogen level reduced compared with the model group (25 mg/kg gavage 14 days) | urine protein level reduced compared with the model group (25 mg/kg gavage 14 days) | urea nitrogen level (25 mg/kg gavage 14 days) | serum creatinine level (25 mg/kg gavage 14 days) | urine protein level (25 mg/kg gavage 14 days) | extent of renal fibrosis, pathological staining (H&E, Masson, Sirius red) | body weight compared with the UUO model group | kidney weight compared with the UUO model group | other results
1 | Cn1c(C(=O)NCCC(=O)O)cc2ccccc21 [3-[(1-methyl-1H-indole-2-carbonyl)amino]propionic acid, reference compound] | 18.3% | 20.6% | 30.1% | 13.94 ± 0.42 mmol/L | 26.52 ± 0.86 µmol/L | 621 ± 81.3 mg/L | shows less improvement in fibrotic tissue proliferation and renal tubular lumen dilation | slight increase in body weight | slight decrease in kidney weight | –
2 | CC(=O)OCCCNC(=O)c1c(C=O)c2ccccc2n1C [compound 1-1, propyl 3-[(3-formyl-1-methyl-1H-indole-2-carbonyl)amino]acetate] | 20.7% | 30.0% | 37.7% | 12.30 ± 0.33 mmol/L | 25.76 ± 1.31 µmol/L | 554 ± 143 mg/L | significantly attenuates tubular lumen dilatation and glomerular atrophy in a dose-dependent manner | slight increase in body weight | slight decrease in kidney weight | creatinine level reduced compared with the model group (10 mg/kg gavage 14 days): 17.2%; urea nitrogen level reduced compared with the model group (10 mg/kg gavage 14 days): 24.7%; urine protein level reduced compared with the model group (10 mg/kg gavage 14 days): 27.4%; urea nitrogen level (10 mg/kg gavage 14 days): 13.23 ± 0.62 mmol/L; serum creatinine level (10 mg/kg gavage 14 days): 26.88 ± 0.86 µmol/L; urine protein level (10 mg/kg gavage 14 days): 645 ± 165 mg/L; creatinine level reduced compared with the model group (50 mg/kg gavage 14 days): 27.6%; urea nitrogen level reduced compared with the model group (50 mg/kg gavage 14 days): 37.7%; urine protein level reduced compared with the model group (50 mg/kg gavage 14 days): 52.6%; urea nitrogen level (50 mg/kg gavage 14 days): 10.94 ± 0.42 mmol/L; serum creatinine level (50 mg/kg gavage 14 days): 23.52 ± 0.86 µmol/L; urine protein level (50 mg/kg gavage 14 days): 421 ± 82.3 mg/L
